{"source": "patent US20070015777A1", "about": "“Use of Inhibitors of the Ubiquitin Proteasome Pathway as a Method of Increasing Contractility of the Heart” (Myogen, Inc., priority 2005, published 2007)", "key": {"[1]": {"tested_on": "β-myosin heavy chain protein", "assay": "Cytoblot assay for beta myosin heavy chain protein content in phenylephrine-treated NRVM", "type": "cell-based, rat", "settings": "phenylephrine 20 μM, MG132 100 and 1000 nM, 48 hours, cytoblot (FIG. 2)", "method": "(§1) NRVM culture. For preparations of neonatal rat ventricular myocytes (NRVMs), hearts were removed from 10-20 newborn (1-2 days old) Sprague-Dawley rats. Isolated ventricles were pooled, minced and dispersed by three 20-minute incubations at 37° C. in Ads buffer (116 mM NaCl, 20 mM HEPES, 10 mM NaH2PO4, 5.5 mM glucose, 5 mM KCl, 0.8 mM MgSO4, pH 7.4) containing collagenase Type 11 (65 units/ml, Worthington) and pancreatin (0.6 mg/ml, GibcoBRL). Dispersed cells were applied to a discontinuous gradient of 40.5% and 58.5% (v/v) Percoll (Amersham Biosciences), centrifuged, and myocytes collected from the interface layer. Myocyte preparations were pre-plated in Dulbecco's modified Eagle's medium (DMEM, Cellgro), supplemented with 10% (v/v) charcoal stripped fetal bovine serum (FBS, HyClone), 4 mM L-glutamine and 1% penicillin/streptomycin for 1 hour at 37° C. to reduce fibroblast contamination, then plated at a density of 2.5×10^5 cells per well on 6-well tissue culture plates (or 10,000 cells/well on 96-well tissue culture plates) coated with a 0.2% (w/v) gelatin solution. […]\n(§2) NRVM protein quantitation by cytoblot (alpha myosin, beta myosin, MCIP1). […] Plates were read in a 96-well luminometer (Packard Fusion)."}, "MCIP1 protein": {"tested_on": "MCIP1 protein", "assay": "Western blot analysis for MCIP1 protein in NRVM", "type": "cell-based, rat", "settings": "range of MG132 concentrations, 48 hours (FIG. 6)", "method": "(§3) NRVM culture. For preparations of neonatal rat ventricular myocytes (NRVMs), hearts were removed from 10-20 newborn (1-2 days old) Sprague-Dawley rats. Isolated ventricles were pooled, minced and dispersed by three 20-minute incubations at 37° C. in Ads buffer (116 mM NaCl, 20 mM HEPES, 10 mM NaH2PO4, 5.5 mM glucose, 5 mM KCl, 0.8 mM MgSO4, pH 7.4) containing collagenase Type 11 (65 units/ml, Worthington) and pancreatin (0.6 mg/ml, GibcoBRL). Dispersed cells were applied to a discontinuous gradient of 40.5% and 58.5% (v/v) Percoll (Amersham Biosciences), centrifuged, and myocytes collected from the interface layer. […]\n(§4) Western Blots. […] Protein concentrations were determined by the bicinchoninic acid method (BCA Protein Assay, Pierce) with bovine serum albumin as a standard. Equivalent quantities of protein samples (10 μg/lane) were denatured in Laemmli buffer and resolved on Tris-glycine SDS-PAGE gels (4-20% acrylamide gradient, Invitrogen). […]"}, "phospho-phospholamban": {"tested_on": "phospho-phospholamban", "assay": "Western blot analysis of NRVM: phospho-phospholamban", "type": "cell-based, rat", "settings": "with or without phenylephrine 20 μM, MG132 370, 1500 and 3000 nM, 48 hours, Western blot (FIG. 3)", "method": "as §3, §4"}, "SERCA": {"tested_on": "SERCA", "assay": "Western blot analysis of NRVM: SERCA", "type": "cell-based, rat", "settings": "with or without phenylephrine 20 μM, MG132 370, 1500 and 3000 nM, 48 hours, Western blot (FIG. 3)", "method": "as §3, §4"}, "NRVM": {"tested_on": "NRVM", "assay": "Cytotoxicity assay (adenylate kinase release, ToxiLight) in NRVM", "type": "cell-based, rat", "settings": "48 hours, at MG132 concentrations that suppress hypertrophy (FIG. 4)", "method": "as §3\n(§5) ANF and toxicity assays. ANF in media supernatants was quantitated by competitive ELISA using a monoclonal anti-ANF antibody (Biodesign) and a biotinylated ANF peptide (Phoenix Peptide). Total cellular protein was quantitated by standard Coomassie dye-binding assay; cells were lysed in protein assay reagent (BioRad) and absorbance at A595 was measured after 1 hour. Cytotoxicity was quantitated by measuring release of adenylate kinase (AK) from cultured NRVM into culture medium (ToxiLight kit, Cambrex)."}, "[2]": {"tested_on": "modulatory calcineurin interacting protein 1 (MCIP1)", "assay": "Cytoblot assay for MCIP1 protein content in NRVM", "type": "cell-based, rat", "method": "as §1, §2"}, "[3]": {"tested_on": "atrial natriuretic factor (ANF) secretion", "assay": "Competitive ANF ELISA on media supernatants of phenylephrine-treated NRVM", "type": "cell-based", "settings": "Rattus norvegicus, 48 h, phenylephrine 20 μM, 48 hours (FIG. 4), read-out: EC50 for suppression of PE-induced ANF secretion", "method": "as §3, §5"}, "[4]": {"tested_on": "alpha myosin heavy chain protein", "assay": "Cytoblot assay for alpha myosin heavy chain protein content in NRVM", "type": "cell-based, rat", "settings": "MG132 100 nM, 48 hours, cytoblot (FIG. 1)", "method": "as §1, §2"}, "phospholamban (PLB)": {"tested_on": "phospholamban (PLB)", "assay": "Western blot analysis of NRVM: phospholamban", "type": "cell-based, rat", "settings": "with or without phenylephrine 20 μM, MG132 370, 1500 and 3000 nM, 48 hours, Western blot (FIG. 3)", "method": "as §3, §4"}, "[5]": {"tested_on": "nuclear factor of activated T cells (NFAT)", "assay": "Calcineurin-dependent nuclear import of GFP-NFAT in adenovirus-infected NRVM (immunofluorescence)", "type": "cell-based, rat", "settings": "NRVM infected with adenovirus encoding activated calcineurin and GFP-NFAT, MG132 1 μM (FIG. 7)", "method": "as §1, with “solution. After 24 hours in culture, myocyte preparations were transferred to serum-free maintenance medium (DMEM supplemented with 0.1% (v/v) Nutridoma (Roche), L-glutamine and penicillin/streptomycin). Where indicated, NRVM were treated with test compounds for a period of 48 hrs.” for “solution.”"}, "alpha myosin heavy chain": {"tested_on": "alpha myosin heavy chain", "assay": "Western blot analysis of NRVM: alpha myosin heavy chain", "type": "cell-based, rat", "settings": "with or without phenylephrine 20 μM, MG132 370, 1500 and 3000 nM, 48 hours, Western blot (FIG. 3)", "method": "as §3, §4"}, "[6]": {"tested_on": "neonatal rat ventricular myocytes (NRVMs)", "settings": "NRVM cell culture model, Dreger 2002; cited from earlier work"}, "[7]": {"tested_on": "total ubiquitinated protein", "assay": "Western blot analysis for total ubiquitinated protein in NRVM", "type": "cell-based, rat", "settings": "range of MG132 concentrations, 48 hours (FIG. 6)", "method": "as §3, §4"}}, "note": "Entries after “also recorded” stand apart in the source; their conditions may differ. Peptide text beside a SMILES is read from it. * marks the point of attachment. Cbz = O=C(OCc1ccccc1)*", "data": [{"smiles": "CC(C)C[C@@H](C=O)NC(=O)[C@H](CC(C)C)NC(=O)[C@H](CC(C)C)NC(=O)OCc1ccccc1", "note": "[MG132] (Cbz-Leu-Leu-Leu-aldehyde)", "values": [{"measurement": "β-myosin heavy chain protein content", "setting": "[1]", "value": "effectively suppressed adrenergic agonist (phenylephrine) dependent upregulation of beta myosin heavy chain protein; also recorded: suppresses hypertrophic agonist-dependent increases in cardiac beta myosin heavy chain protein expression"}, {"measurement": "MCIP1 protein expression (Western blot)", "setting": "MCIP1 protein", "value": "increases cardiac modulatory calcineurin interacting protein 1 (MCIP1) protein expression"}, {"measurement": "PLB phosphorylation (phospho-phospholamban)", "setting": "phospho-phospholamban", "value": "dose-dependent increase in PLB phosphorylation; also recorded: increases expression of SERCA, alpha myosin heavy chain and phospho-phospholamban"}, {"measurement": "expression of SERCA protein", "setting": "SERCA", "value": "increased in vitro expression of cardiac SERCA protein; also recorded: increases expression of SERCA"}, {"measurement": "cytotoxicity (release of adenylate kinase)", "setting": "NRVM", "value": "no release of adenylate kinase (AK); also recorded: non-cytotoxic concentrations"}, {"measurement": "EC50", "setting": "[2]; Rattus norvegicus, 48 hours, cytoblot (FIG. 5), read-out: EC50 for induction of cardiac MCIP1 expression", "value": 10, "unit": "nM"}, {"measurement": "MCIP1 protein expression (cytoblot)", "setting": "[2]; range of MG132 concentrations, 48 hours (FIG. 5)", "value": "dose-dependent increase in expression of modulatory calcineurin interacting protein 1 (MCIP1); also recorded: increases cardiac modulatory calcineurin interacting protein 1 (MCIP1) protein expression"}, {"measurement": "EC50", "setting": "[3]", "value": "~20", "unit": "nM"}, {"measurement": "alpha myosin heavy chain protein content", "setting": "[4]", "value": "significantly increased expression of alpha myosin heavy chain protein; also recorded: increases cardiac alpha myosin heavy chain protein expression"}, {"measurement": "expression of phospholamban (PLB)", "setting": "phospholamban (PLB)", "value": "decreased expression of the SERCA inhibitory protein, phospholamban (PLB); also recorded: decreases expression of cardiac phospholamban"}, {"measurement": "calcineurin-dependent nuclear import of GFP-NFAT", "setting": "[5]", "value": "blocked the ability of constitutively activated calcineurin to promote nuclear import of NFAT; also recorded: suppresses calcineurin-dependent nuclear import"}, {"measurement": "expression of alpha myosin heavy chain (Western blot)", "setting": "alpha myosin heavy chain", "value": "increases expression of SERCA, alpha myosin heavy chain"}, {"measurement": "anti-hypertrophic effect (β-MyHC levels, cell size and morphology, BNP, sarcomeric actin)", "setting": "[6]", "value": "anti-hypertrophic"}, {"measurement": "total ubiquitinated protein", "setting": "[7]", "value": "induced accumulation of ubiquitinated protein"}]}]}
